Literature values as cited in patent US11718578B2, “Ketamine flow synthesis” (Université de Liège, priority 2017, dated 2023).

Target: glutamatergic N-methyl-D-aspartate (NMDA) receptor
Settings: non-competitive NMDA receptor antagonist; according to Tyler et al.

## CN[C@]1(c2ccccc2Cl)CCCCC1=O [1a, (S)-2-(2-chlorophenyl)-2-(methylamino)-cyclohexanone]
  IC50: 465 nM
